According to US20150297761A1, “PEPTIDIC STRUCTURES INCORPORATING AN AMINO ACID METAL COMPLEX AND APPLICATIONS IN MAGNETIC RESONANCE IMAGING” (THE GENERAL HOSPITAL CORPORATION, priority 2012, published 2015):
Read-outs that look alike come from different tables or passages of the source.

Tests used:
[1] = Kinetic inertness: Zn(II) transmetallation in phosphate buffer, followed by 1/T1; format: physicochemical
Text: Kinetic inertness was also taken into account in the evaluation of potential probes. In this regard, [Gd(CyPic3A)(H2O)2]^− was challenged with 1 equiv. [ZnPO4]^− as a slurry in pH 7.0 phosphate buffer at 310 K (see below). Several clinically utilized Gd(III) complexes have been benchmarked relative to one another in this manner.^37 As Gd(III) replaced by Zn(II) precipitates from the solution as GdPO4, the relaxation rate 1/T1 decreases. In this method, the time required to reach 80% of the initial 1/T1 value was utilized as an index of kinetic inertness.
Modified conditions of Muller and co-workers were used for this experiment.^11,12 Solutions containing 2.5 mM [Gd(CyPic3A)(H2O)2]^− and 2.5 mM Zn(OTf)2 were combined in pH 7.0 phosphate buffer (50 mM) and placed in an incubator shaker set to 310 K. Progress of the transchelation was monitored via the decrease in 1/T1 with time. Prior to measurement, aliquots were placed in small glass inserts and centrifuged to bring all insoluble material to the bottom so as not to interfere with the measurement.

[2] = hydration state; literature (superscript refs); cited from earlier work
[3] = cited from earlier work
[4] = Relaxometry of [Gd(CyPic3A)(H2O)2]− in different media; format: physicochemical
Protocol: The relaxivity of [Gd(CyPic3A)(H2O)2]^− is consistent with two inner-sphere water ligands. At 310 K in pH 7.4 50 mM HEPES buffer, r1=5.70 mM^−1 s^−1 at 1.41 T (7.53 mM^−1s^−1 at 298 K). This is 75% higher than [Gd(DTPA)(H2O)]^2− measured under these conditions (see below for detailed table of r1 values). To probe the effects of potentially coordinating anions, nwas measured in the presence of 20 equiv. carbonate or L-lactate and also in 25 mM phosphate buffer (pH 7.4).
Relaxivity measurements were performed on a Bruker mq60 or Bruker mq20 Minispec at 1.41 T and 0.47 T, respectively, and 37° C. Longitudinal (T1) relaxation was acquired via an inversion recovery experiment on 10 inversions of duration ranging between 0.05×T1 and 5×T1. Relaxivity (r1) was determined from the slope of a plot of 1/T1 vs. [Gd] for at least 4 concentrations of Gd(III). The transverse (T2) relaxation times of ^17O were acquired at 500 MHz using a CPMG pulse sequence at temperatures ranging from 278 to 368 K. Reduced relaxation rates (1/T2r) were calculated by dividing the [Gd(CyPic3A)(H2O)2]^− imparted increase in 1/T2 relative to neat H2O at pH 3 by the mole fraction of coordinated water molecules.

[5] = buffer, pH 3
Protocol: For comparison, we also measured transchelation from the approved contrast agents [Gd(HP-DO3A)(H2O)] (ProHance, gadoteridol) and [Gd(DTPA)(H2O)]^2− (Magnevist, gadopentetate). […] We estimated half-times for these transchelations (time to 50% of the equilibrium value).
Stock solutions of MS-325-L and GdL1, Gd2L2 and Gd3L3 were prepared in 50 mM citrate buffer at pH 3.0. MS-325-L was added to solutions of the Gd complexes and incubated at 37° C. The final concentrations of the metal complexes were 0.1 mM, while the concentration of MS-325-L was adjusted according to the amounts of Gd complexes per metallopeptide present. A 10 μL aliquot was removed for HPLC analysis and analyzed while the remainder of the solution was incubated at 37° C.

[6] = Relaxivity of Gd(DOTAla) metallopeptides and reference agents (T1 inversion recovery, 37° C.); format: physicochemical
Protocol: Main numbers are given per Gd, numbers in parentheses are per molecule values. All numbers were determined at 37° C. using an inversion recovery sequence at concentrations ranging from 0.05 to 0.6 mM/Gd. Table 4 in Example 2 further expands the data of Table 1.
Per Gd relaxivities were determined by measuring T1 at 37° C. using 20, 60, 200, 400 and 500 MHz spectrometers. Relaxivities for MS-325 (with and without the presence of HSA) as a reference compound with a long τR and [Gd(HP-DO3A)(H2O)] as a reference for very short τR were also measured, and all the relaxivity data is tabulated in Table 4, together with results obtained from literature for the compounds with similar estimated τR. […] Additional rigidity through cyclization seems to provide only minor relaxivity increase for the dimeric and trimeric systems (Gd2C2 and Gd3C3).
Measurement of relaxivity. Longitudinal relaxation times T1, were measured on Bruker Minispecs mq20 (0.47 T) and mq60 (1.41 T), a Bruker Bioscan horizontal bore 4.7 T, 9.4 T and 11.7 T Varian NMR spectrometers. T1 was measured by using an inversion recovery method with 10 inversion time values ranging from 0.05×T1 to 5×T1. Relaxivity was calculated from a linear plot of 3 or 4 different concentrations (ranging from 0.01 to 0.5 mM, depending on amount of compound isolated) versus the corresponding inverse relaxation times. All samples were measured at 37° C. using either the internal temperature control of the instrument (0.47, 1.41, 9.4 and 11.7 T) or a warm air blower (4.7 T). MS-325/HSA was prepared in a 4.5% w/v solution of HSA (0.66 mM) in PBS. The MS-325 concentration (in presence of HSA) ranged from 0.05 to 0.15 mM.

[7] = Ligand challenge, equilibrium constant Kcomp of [Gd(DTPA)(H2O)]2− vs. L; format: physicochemical; details: pH 7.4
Protocol: As a means of assessing thermodynamic stability relative to other Gd(III)-complexes, [Gd(CyPic3A)(H2O)2]^− was challenged with DTPA in pH 7.4 25 mM Tris buffer. […] From this information it was possible to deduce equilibrium constants (Kcomp) for the competition reaction described in Equation 5,^31 where L=DTPA and L′=challenging chelator.
(§1) Equilibration of each solution was monitored by LC-MS. Relative distributions of [Gd(CyPic3A)(H2O)2]^− and CyPic3A were determined by integrating the corresponding absorbance traces at 280 nm. […] Kcomp values determined between [Gd(DTPA)(H2O)]^2− and various ligands were determined from conditional formation constants (Kcond)^4 values taken from the literature.^6-16 Direct comparisons were only made between Kcond values determined under identical conditions.

[8] = as above; format: physicochemical; details: obtained through ligand challenge
[9] = Ligand challenge, equilibrium constant Kcomp of MS-325 vs. L; format: physicochemical; details: obtained through ligand challenge
Protocol: as §1

[10] = 0.47 T, 310 K, literature (superscript refs)

O=C([O-])CN(CCN(CC(=O)[O-])CC(=O)O)CCN(CC(=O)[O-])CC(=O)O.[Gd+3] [[Gd(DTPA)(H2O)]^2−, gadopentetate]
time to 80% of the initial 1/T1 ([1]; 1 equiv. Zn(II), pH 7.0 phosphate buffer, 310 K): 383 min | q [2]: 1^16 | r1 0.47 T 298K ([3]; 0.47 T, 298 K, literature (superscript refs)): 4.3^16 mM^−1s^−1 | r1 0.47 T 310K [3, 10]: 3.4^17 mM^−1s^−1 | r1 1.41 T 310K [4]: 3.26 mM⁻¹ s⁻¹ | r1 ([4]; 1.41 T, 310 K, pH 7.4 50 mM HEPES buffer): 3.26 mM⁻¹ s⁻¹ | t1/2 [h], Gd transchelation to MS-325 [5]: 0.42 ± 0.18 h

CC(O)CN1CCN(CC(=O)[O-])CCN(CC(=O)[O-])CCN(CC(=O)[O-])CC1.[Gd+3] (stereo not shown) [[Gd(HP-DO3A)(H2O)], gadoteridol, reference compound]
Relaxivity per Gd, 20 MHz ([6]; 20 MHz): 4.3 mM⁻¹ s⁻¹ | Relaxivity per Gd, 60 MHz ([6]; 60 MHz): 3.2 mM⁻¹ s⁻¹ | Relaxivity per Gd, 200 MHz ([6]; 200 MHz): 3.6 mM⁻¹ s⁻¹ | Relaxivity per Gd, 400 MHz ([6]; 400 MHz (9.4 T)): 3.0 mM⁻¹ s⁻¹ | Relaxivity per Gd, 500 MHz ([6]; 500 MHz): 2.9 mM⁻¹ s⁻¹ | r1 [0.47 T], per Gd ([6]; per Gd, 0.47 T): 4.33 mM⁻¹ s⁻¹ | r1 [1.4 T], per Gd ([6]; per Gd, 1.4 T): 3.21 mM⁻¹ s⁻¹ | r1 [9.4 T], per Gd ([6]; per Gd, 9.4 T): 3.03 mM⁻¹ s⁻¹ | r1 [11.7 T], per Gd ([6]; per Gd, 11.7 T): 2.94 mM⁻¹ s⁻¹ | q [2]: 1^16 | r1 0.47 T 310K [3, 10]: 3.1^17 mM^−1s^−1 | r1 1.41 T 310K ([3]; cell says 1.5 T, 310 K, literature (ref 17)): 2.9 (1.5 T)^17 mM^−1s^−1 | t1/2 [h], Gd transchelation to MS-325 [5]: 91 ± 6 h

N-((6-methylpicol-2-yl)methyl)-N,N′,N′-triacetate-trans-1,2-diaminocyclohexane [CyPic3A]
affinity for Gd(III) lower than DTPA [7]: about 5 fold | Time to 80% r1 ([1]; Zn(II) challenge of the Gd(III) complex of L, this work): 95 min | Kcomp [Gd(DTPA)(H2O)]^2- vs. L pH 4 [8]: 0.18 | Kcomp MS-325 vs. L pH 4 ([9]; pH 4): 0.031 | Kcomp MS-325 vs. L pH 7.4 ([9]; pH 7.4): 0.56
